Measurements taken from publication PMC7918049, “Juncaceae Species as Promising Sources of Phenanthrenes: Antiproliferative Compounds from Juncus maritimus Lam” (Molecules, 2021).
Like-named read-outs stand apart in the source and are kept apart here.

Assays:
[1] = system: hepatitis C (HCV) replication; set-up: method as in PMID 30842319; settings: cited from earlier work
[2] = system: HeLa human cervix carcinoma cells; assay: MTT antiproliferative assay, HeLa; format: cell-based; settings: 72 h, mean of four parallel experiments, read-out: IC50 (µM) ± SD HeLa
Experimental: (§1) Breast cancer cell line MCF-7 (ATCC®® HTB-22) and the drug-resistant subline of the human breast cancer MCF-7 (ECACC 86012803; KCR) were purchased from LGC Promochem (Teddington, UK). Both cell lines were cultured in Eagle’s Minimal Essential Medium (EMEM, containing 4.5 g/L glucose) supplemented with a non-essential amino acid mixture, a selection of vitamins, and 10% heat-inactivated fetal bovine serum. In every third passage, 0.56 µg/mL doxorubicin was added to the medium in order to maintain the ABCB1 (P-glycoprotein) expression in KCR cells. A2780 human ovarian cancer cell line (ECACC European Collection of Authentical Cell Culture, Sigma Cat. no. 93112519) and the cisplatin-resistant human ovarian cancer cell line A2780cis (ECACC European Collection of Authentical Cell Culture, Sigma Cat. no. 93112517) were purchased from Merck KGaA (Darmstadt, Germany). The human ovarian cancer cell lines were cultured in RPMI 1640 medium supplemented with 10% heat-inactivated fetal bovine serum. The RPMI 1640 medium of the cisplatin-resistant cell line A2780 was supplemented with 1 µM cisplatin. HeLa (ATCC® CCL-2™) human cervix carcinoma, HTB-26 breast adenocarcinoma, T-47D (ATCC® HTB-133™) ductal carcinoma, and MRC-5 human embryonal lung fibroblast cell lines (ATCC® CCL-171) were purchased from LGC Promochem (Teddington, UK). The cells were cultured in Eagle’s Minimal Essential Medium (EMEM, containing 4.5 g/L glucose) supplemented with a non-essential amino acid mixture, a selection of vitamins, and 10% heat-inactivated fetal bovine serum. HTB-26 cell line was cultured in RPMI 1640 medium supplemented with 10% heat-inactivated fetal bovine serum. T-47D cells were cultured in RPMI 1640 medium supplemented with 10% heat-inactivated fetal bovine serum, 2 mM L-glutamine, 1 mM Na-pyruvate, and 100 mM Hepes. All of the cells were incubated at 37 °C, in a 5% CO2, 95% air atmosphere.
(§2) The antiproliferative effect of the compounds was determined on the human breast (MCF-7, KCR, T-47D, HTB-26), cervical (HeLa), and ovarian (A2780, A2780cis) cancer cells, and on MRC-5 (human embryonic lung fibroblast) cell line. The adherent cells were cultured in 96-well flat-bottomed microtiter plates, using EMEM supplemented with 10% heat-inactivated fetal bovine serum or RPMI 1640 supplemented with 10% heat-inactivated fetal bovine serum, respectively. The density of the cells was adjusted to 6 × 10^3 cells in 100 μL per well, the cells were seeded for 24 h at 37 °C, 5% CO2, then the medium was removed from the plates and fresh medium (100 μL per well) was added to the cells. The effects of increasing concentrations of compounds on cell proliferation were tested in 96-well flat-bottomed microtiter plates. The compounds were diluted in the appropriate medium, the dilutions of compounds were performed in separate plates and then added to the cells. The starting concentration of the compounds was 100 μM, and two-fold serial dilution was performed (concentration range: 100-0.19 μM). The culture plates were incubated at 37 °C for 72 h; at the end of the incubation period, 20 μL of MTT (thiazolyl blue tetrazolium bromide, Sigma) solution (from a stock solution of 5 mg/mL) was added to each well. After incubation at 37 °C for 4 h, 100 μL of sodium dodecyl sulfate (SDS) (Sigma) solution (10% in 0.01 M HCI) were added to each well and the plates were further incubated at 37 °C overnight. Cell growth was determined by measuring the optical density (OD) at 540/630 nm with Multiscan EX ELISA reader (Thermo Labsystems, Cheshire, WA, USA). Mean IC50 values were obtained by best fitting the dose-dependent inhibition curves in GraphPadPrism5 program (GraphPad Software version 5.00 for Windows, San Diego, CA, USA) from four parallel experiments for each cell line. Results are expressed in terms of IC50, defined as the inhibitory dose that reduces the proliferation of the cells exposed to the tested compounds by 50% [14].

[3] = system: HTB-26 breast adenocarcinoma cells; assay: MTT antiproliferative assay, HTB-26; format: cell-based, human; settings: HTB-26, mean of four parallel experiments, read-out: IC50 (µM) ± SD HTB-26
Experimental: as §1, §2

[4] = system: Zymoseptoria tritici; set-up: method as in PMID 28484977; settings: cited from earlier work
[5] = system: T-47D ductal carcinoma cells; assay: MTT antiproliferative assay, T-47D; format: cell-based, human; settings: 72 h, mean of four parallel experiments, read-out: IC50 (µM) ± SD T-47D
Experimental: as §1, §2

[6] = system: A2780 human ovarian cancer cell line; assay: MTT antiproliferative assay, A2780; format: cell-based; settings: 72 h, A2780, mean of four parallel experiments, read-out: IC50 (µM) ± SD A2780
Experimental: as §1, §2

[7] = system: cisplatin-resistant human ovarian cancer cell line A2780cis; assay: MTT antiproliferative assay, A2780cis; format: cell-based; settings: 72 h, mean of four parallel experiments, read-out: IC50 (µM) ± SD A2780cis
Experimental: as §1, §2

[8] = system: Breast cancer cell line MCF-7; assay: MTT antiproliferative assay, MCF-7; format: cell-based, human; settings: MCF-7, mean of four parallel experiments, read-out: IC50 (µM) ± SD MCF-7
Experimental: as §1, §2

[9] = system: KCR, drug-resistant subline of the human breast cancer MCF-7; assay: MTT antiproliferative assay, KCR; format: cell-based; settings: mean of four parallel experiments, read-out: IC50 (µM) ± SD KCR
Experimental: as §1, §2

[10] = system: MRC-5 human embryonal lung fibroblast cell line; assay: MTT antiproliferative assay, MRC-5 normal cells; format: cell-based; settings: for IC50: MRC-5 normal fibroblasts, mean of four parallel experiments, read-out: IC50 (µM) ± SD MRC-5
Experimental: as §1, §2

[11] = system: HeLa, HTB-26, T-47D, A2780, A2780cis, MCF-7, KCR and MRC-5 cell lines; assay: MTT antiproliferative assay, all cell lines investigated (overall statements); format: cell-based, human; settings: 72 h, all cell lines tested
Experimental: Breast cancer cell line MCF-7 (ATCC®® HTB-22) and the drug-resistant subline of the human breast cancer MCF-7 (ECACC 86012803; KCR) were purchased from LGC Promochem (Teddington, UK). Both cell lines were cultured in Eagle’s Minimal Essential Medium (EMEM, containing 4.5 g/L glucose) supplemented with a non-essential amino acid mixture, a selection of vitamins, and 10% heat-inactivated fetal bovine serum. In every third passage, 0.56 µg/mL doxorubicin was added to the medium in order to maintain the ABCB1 (P-glycoprotein) expression in KCR cells. A2780 human ovarian cancer cell line (ECACC European Collection of Authentical Cell Culture, Sigma Cat. no. 93112519) and the cisplatin-resistant human ovarian cancer cell line A2780cis (ECACC European Collection of Authentical Cell Culture, Sigma Cat. no. 93112517) were purchased from Merck KGaA (Darmstadt, Germany). The human ovarian cancer cell lines were cultured in RPMI 1640 medium supplemented with 10% heat-inactivated fetal bovine serum. […]
The antiproliferative effect of the compounds was determined on the human breast (MCF-7, KCR, T-47D, HTB-26), cervical (HeLa), and ovarian (A2780, A2780cis) cancer cells, and on MRC-5 (human embryonic lung fibroblast) cell line. […] Cell growth was determined by measuring the optical density (OD) at 540/630 nm with Multiscan EX ELISA reader (Thermo Labsystems, Cheshire, WA, USA). […]

Compound	inhibition of hepatitis C (HCV) replication (in words) [1]	IC50 ([2]; Homo sapiens) [µM]	IC50 ([3]; Homo sapiens, HTB26, 72 h) [µM]	in vitro antifungal activity against Zymoseptoria tritici (in words) [4]	IC50 ([5]; Homo sapiens, T47D) [µM]	IC50 ([6]; Homo sapiens) [µM]	IC50 ([7]; Homo sapiens) [µM]	IC50 ([8]; Homo sapiens, MCF7, 72 h) [µM]	IC50 ([9]; Homo sapiens, MCF7, 72 h) [µM]	selectivity: effect on MRC-5 normal lung fibroblasts compared to cancer cell lines (in words) ([10]; 72 h, MRC-5 versus cancer cell lines)	IC50 ([10]; Homo sapiens, MRC5, 72 h) [µM]	IC50 [7] [µM]	antiproliferative activity across the cell lines investigated (in words) [11]	IC50 ([8]; 72 h) [µM]	IC50 [2] [µM]	IC50 ([3]; 72 h) [µM]	IC50 [5] [µM]	IC50 [6] [µM]	IC50 ([9]; 72 h) [µM]	IC50 ([10]; 72 h) [µM]
C=Cc1c(C)c(O)cc2ccc3c(C)c(O)ccc3c12 [dehydrojuncusol]	novel inhibitor of hepatitis C (HCV) replication	–	–	–	–	–	–	–	–	–	–	–	–	–	–	–	–	–	–	–
C=Cc1cc(O)cc2c1-c1ccc(O)c(C)c1CC2 [Compound 6, effusol]	–	2.3 ± 0.7	57 ± 2.73	significant in vitro antifungal activity	–	–	–	–	–	–	–	–	–	–	–	–	–	–	–	–
C=Cc1cc(O)c(CO)c2c1-c1ccc(O)c(C)c1CC2 [Compound 1, maritin A]	–	57 ± 1.3	48.7 ± 1.6	–	12.8 ± 0.9	21.5 ± 0.4	40.1 ± 0.4	34.7 ± 3	57.6 ± 0.7	less antiproliferative effect on MRC-5 normal lung fibroblasts compared to the other cancer cell lines	75.4 ± 1.8	–	–	–	–	–	–	–	–	–
C=Cc1cc(O)cc2c1-c1cc(-c3cc4c(c(C)c3O)CCc3cc(O)cc(C=C)c3-4)c(O)c(C)c1CC2 [Compound 11, effususin A]	–	25.2 ± 0.6	24.7 ± 2.1	–	6.2 ± 0.1	25.6 ± 2.4	< 20	< 20	19.6 ± 0.9	–	20.1 ± 1.6	16.3 ± 0.3	substantial antiproliferative activity against all cell lines investigated	–	–	–	–	–	–	–
C=Cc1cc(O)c(C)c2c1-c1ccc(O)c(C)c1CC2 [Compound 8, 2,7-dihydroxy-1,8-dimethyl-5-vinyl-9,10-dihydrophenanthrene]	–	> 100	> 100	–	57 ± 7.1	> 100	> 100	69.5 ± 1.7	> 100	–	> 100	–	–	–	–	–	–	–	–	–
C=Cc1c(C)c(O)cc2c1-c1ccc(O)c(C)c1CC2 [Compound 5, juncusol]	–	0.5	–	–	25 ± 0.4	–	–	–	–	–	–	–	–	–	–	–	–	–	–	–
C=Cc1cc(C)cc2c1-c1ccc(O)c(C)c1CC2 [Compound 9, juncunol]	–	76.7 ± 1.8	75 ± 5	–	41.4 ± 5.8	43.5 ± 1.1	52.8 ± 2.4	45.7 ± 2.4	68.4 ± 2.5	–	78.4 ± 3.7	–	–	–	–	–	–	–	–	–
Cc1c(O)cc2ccc3c(C)c(O)cc4c3c2c1C(O)C4 (stereo not drawn) [Compound 3, maritin C]	–	43.2 ± 0.7	35.9 ± 1.5	–	17 ± 0.6	23.7 ± 0.1	< 20	–	> 100	–	15 ± 0.2	18.6 ± 0.1	–	–	–	–	–	–	–	–
C=Cc1c(C)ccc2c1CCc1c-2ccc(O)c1C [Compound 2, maritin B]	–	11 ± 0.9	> 100	–	> 100	> 100	> 100	97 ± 0.3	> 100	–	> 100	–	–	–	–	–	–	–	–	–
C=Cc1cc(O)cc2c1-c1ccc(Oc3cc4c(c(C)c3O)CCc3cc(O)cc(C=C)c3-4)c(C)c1CC2 [Compound 4, maritin D]	–	22.5 ± 1.2	25.1 ± 0.3	–	9.1 ± 0.4	14.1 ± 1.3	< 20	< 20	16.2 ± 0.6	–	17.1 ± 3.1	13.3 ± 0.1	substantial antiproliferative activity against all cell lines investigated	14.2 ± 0.3	–	–	–	–	–	–
Cc1c(O)ccc2c1CCc1cc(O)cc(C=O)c1-2 [Compound 7, 2,7-dihydroxy-1-methyl-5-aldehyde-9,10-dihydrophenanthrene]	–	24.7 ± 0.5	85.3 ± 4.5	–	26.6 ± 1.1	30 ± 3.6	32.3 ± 2.3	38 ± 2	70.6 ± 3.1	–	71.1 ± 1.3	–	–	–	–	–	–	–	–	–
N.N.[Cl][Pt][Cl] [cisplatin, reference compound]	–	–	–	–	–	–	–	–	–	–	–	7.3 ± 0.2	–	0.9	2.3 ± 0.1	20.1 ± 2.3	5.9 ± 0.1	3.6 ± 0.3	6.5 ± 0.3	0.6
